Measurements: PMC11009388, “Insights into the molecular mechanism of yellow cuticle coloration by a chitin-binding carotenoprotein in gregarious locusts” (Communications Biology, 2024)
“And” between values parts separate entries of the source, which are not always exact repeats. Equal values may be shown once. Each block holds one compound with its values, some of them ahead of it.

Legend:
[1] = target: T1, BBP (β-carotene-binding protein), recombinant (Schistocerca gregaria, UniProt A0A6N3ISN1); assay: HPLC of carotenoids bound to purified protein; conditions: late induction in ECH/CAN-producing E. coli; competing with β-carotene in membranes
T1 construct: gene YPT; mature form residues 23-273, signal peptide removed; N-terminal His6 tag cleaved by 3C leaving GSHM; E. coli C41(DE3) making carotenoids
T1 sequence (A0A6N3ISN1 23-273): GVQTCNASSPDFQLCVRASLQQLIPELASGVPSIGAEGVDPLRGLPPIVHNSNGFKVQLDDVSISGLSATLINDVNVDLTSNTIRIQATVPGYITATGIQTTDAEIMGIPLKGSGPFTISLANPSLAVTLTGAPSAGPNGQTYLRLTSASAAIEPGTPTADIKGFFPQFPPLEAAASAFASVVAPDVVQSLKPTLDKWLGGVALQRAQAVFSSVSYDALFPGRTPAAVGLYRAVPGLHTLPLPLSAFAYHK

[2] = target: native BBP extracted from the yellow locust cuticle (Schistocerca gregaria (endogenous in locust cuticle)); assay: SEC; clarified soluble extract of yellow locust cuticle on Superdex 200 Increase 5/150, 0.45 mL/min; 20 mM Tris-HCl pH 7.5, 150 mM NaCl, 3 mM βME, 0.5 mM PMSF; apparent Mw from column calibration
[3] = target: T1, BBP (β-carotene-binding protein), recombinant; assay: HPLC of bound carotenoid, absorbance, CD and Raman spectra, SEC of holoprotein; conditions: reconstituted in β-carotene-producing E. coli; 20 mM Tris-HCl pH 7.5, 150 mM NaCl
BmCBP = target: T2, BmCBP (Bombyx mori, UniProt Q8MYA9); assay: induced UV/Vis circular dichroism, absorbance spectrum, SECmelt; assay type: binding; conditions: 20 mM phosphate pH 7.2 (CD); sample has excess apoform
T2 construct: residues 68-297 (START domain), His-tag cleaved, preparation from previous work
T2 sequence (Q8MYA9 68-297): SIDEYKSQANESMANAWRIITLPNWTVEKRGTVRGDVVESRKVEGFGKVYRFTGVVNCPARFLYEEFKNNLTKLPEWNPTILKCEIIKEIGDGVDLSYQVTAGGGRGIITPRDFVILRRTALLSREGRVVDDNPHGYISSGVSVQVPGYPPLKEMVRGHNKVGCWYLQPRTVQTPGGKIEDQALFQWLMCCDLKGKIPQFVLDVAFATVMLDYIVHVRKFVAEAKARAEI

[4] = target: recombinant β-carotene-binding protein from Schistocerca gregaria in complex with β-carotene, BBP(βCar) (Schistocerca gregaria); assay: SEC; spectrochromatography on Superdex 200 Increase 5/150, 0.45 mL/min; 20 mM Tris-HCl pH 7.5, 150 mM NaCl, 3 mM βME, also with 2 M urea or 0.05% DOC, or 10 mM MES pH 6.0, 150 mM NaCl; apparent Mw from column calibration
[5] = target: recombinant β-carotene-binding protein from Schistocerca gregaria in complex with β-carotene, BBP(βCar) (Schistocerca gregaria); assay: SEC-MALS; Superdex 200 Increase 10/300, 20 mM Tris pH 7.5, 150 mM NaCl, 3 mM βME, 0.8 mL/min; self-association of BBP(βCar)
[6] = target: recombinant β-carotene-binding protein from Schistocerca gregaria in complex with β-carotene, BBP(βCar) (Schistocerca gregaria); assay: cross-linking; glutaraldehyde 0.23%, 15 min at 30 °C, 20 mM HEPES pH 7.5, 150 mM NaCl; analysed by SDS-PAGE

Compound: CC1=C(/C=C/C(C)=C/C=C/C(C)=C/C=C/C=C(C)/C=C/C=C(C)/C=C/C2=C(C)C(=O)CCC2(C)C)C(C)(C)CCC1=O [CAN, canthaxanthin]
HPLC of carotenoids bound to purified protein [1]: also exhibits capacity to bind ECH and, less efficiently, CAN

Compound: CC1=C(/C=C/C(C)=C/C=C/C(C)=C/C=C/C=C(C)/C=C/C=C(C)/C=C/C2=C(C)C(=O)CCC2(C)C)C(C)(C)CCC1 [ECH, echinenone]
HPLC of carotenoids bound to purified protein [1]: BBP avidly binds β-carotene but also exhibits capacity to bind ECH

stoichiometry N [2]: 2
Compound: native BBP extracted from the yellow locust cuticle (natural protein)

Compound: CC1=C(/C=C/C(C)=C/C=C/C(C)=C/C=C/C=C(C)/C=C/C=C(C)/C=C/C2=C(C)CCCC2(C)C)C(C)(C)CCC1 [βCar, β-carotene]
HPLC of bound carotenoid, absorbance, CD and Raman spectra, SEC of holoprotein [3]: recombinant BBP, like native BBP from locusts, indeed contains almost exclusively β-carotene

Compound: CC1=C(/C=C/C(C)=C/C=C/C(C)=C/C=C/C=C(C)/C=C/C=C(C)/C=C/C2=C(C)C[C@@H](O)CC2(C)C)C(C)(C)C[C@H](O)C1 [ZEA, zeaxanthin]
induced UV/Vis circular dichroism, absorbance spectrum, SECmelt (BmCBP): UV/Vis circular dichroism spectrum was distinctly different from that of the BmCBP complex with ZEA

stoichiometry N [4]: 2 and 4
stoichiometry N [5]: 2
stoichiometry N [6]: 4 and 2
Compound: recombinant β-carotene-binding protein from Schistocerca gregaria in complex with β-carotene, BBP(βCar) (from UniProt A0A6N3ISN1 23-273) (natural protein)
